In patent US20210395262A1, “INHIBITORS OF HUMAN IMMUNODEFICIENCY VIRUS REPLICATION” (ViiV HEALTHCARE UK (NO.5) LIMITED, priority 2018, published 2021):

Legend:
recombinant NL4-3 virus = assay: HIV cell culture assay (antiviral activity, luciferase readout in MT-2 cells); format: cell-based; details: Human immunodeficiency virus 1, NL43, MT2
Description: HIV cell culture assay—MT-2 cells, 293T cells and the proviral DNA clone of NL4-3 virus were obtained from the […] AIDS Research and Reference Reagent Program. MT-2 cells were propagated in RPMI 1640 media supplemented with 10% heat inactivated fetal bovine serum (FBS), […] penicillin G and up to 100 units/mL streptomycin. The 293T cells were propagated in DMEM media supplemented with 10% heat inactivated FBS, […] penicillin G and […] streptomycin. A recombinant NL4-3 proviral clone, in which a section of the nef gene was replaced with the Renilla luciferase gene, was used to make the reference virus used in these studies. The recombinant virus was prepared through transfection of the recombinant NL4-3 proviral clone into 293T cells using Transit-293 Transfection Reagent from Mirus Bio LLC (Madison, Wis.). Supernatent was harvested after 2-3 days and the amount of virus present was titered in MT-2 cells using luciferase enzyme activity as a marker by measuring luciferase enzyme activity. Luciferase was quantitated using the EnduRen Live Cell Substrate from Promega (Madison, Wis.). Antiviral activities of compounds toward the recombinant virus were quantified by measuring luciferase activity in MT-2 cells infected for 4-5 days with the recombinant virus in the presence of serial dilutions of the compound.
The 50% effective concentration (EC50) was calculated by using the exponential form of the median effect equation where (Fa)=1/[1+(ED50/drug conc.)m] (Johnson V A, Byington R T. Infectivity Assay. In Techniques in HIV Research. ed. Aldovini A, Walker B D. 71-76. New York: Stockton Press. 1990). The 50% inhibitory concentration (EC50) was calculated by using the exponential form of the median effect equation where percent inhibition=1/[1+(EC50/drug concentration)m], where m is a parameter that reflects the slope of the concentration-response curve.

[1] = Compound cytotoxicity, XTT-based colorimetric assay; format: cell-based; details: human; uninfected MT2 cells, day 4, XTT; read-out: CC50
Description: Compound cytotoxicity and the corresponding CC50 values were determined using the same protocol as described in the antiviral assay except that uninfected cells were used. Cytotoxicity was assessed on day 4 in uninfected MT2 cells by using a XTT (2,3-bis[2-Methoxy-4-nitro-5-sulfophenyl]-2H-tetrazolium-5-carboxyanilide inner salt)-based colorimetric assay (Sigma-Aldrich, St Louis, Mo.).

Compound	EC50 (recombinant NL4-3 virus)	CC50 at 4 days [1]
C[C@@H]1CN(c2ccc3c(=O)n(-c4ccc(Cl)c5c(NS(C)(=O)=O)nn(CC(F)(F)F)c45)c([C@H](Cc4cc(F)cc(F)c4)NC(=O)Cn4nc(C(F)F)cc4C4CC4)nc3c2)C[C@H](C)O1 (atropisomer, axis not shown; (P)) [Example 59, N—((S)-1-((3P)-3-(4-chloro-3-(methylsulfonamido)-1-(2,2,2-trifluoroethyl)-1H-indazol-7-yl)-7-((2S,6R)-2,6-dimethylmorpholino)-4-oxo-3,4-dihydroquinazolin-2-yl)-2-(3,5-difluorophenyl)ethyl)-2-(5-cyclopropyl-3-(difluoromethyl)-1H-pyrazol-1-yl)acetamide]	0.42 nM	> 500 nM
C[C@@H]1CN(c2ccc3c(=O)n(-c4ccc(Cl)c5c(NS(C)(=O)=O)nn(CC(F)(F)F)c45)c([C@H](Cc4cc(F)cc(F)c4)NC(=O)Cn4nc(C(F)(F)F)c5c4C(F)(F)[C@@H]4C[C@H]54)nc3c2)C[C@H](C)O1 (atropisomer, axis not shown; (P)) [Example 61, N—((S)-1-((3P)-3-(4-chloro-3-(methylsulfonamido)-1-(2,2,2-trifluoroethyl)-1H-indazol-7-yl)-7-((2S,6R)-2,6-dimethylmorpholino)-4-oxo-3,4-dihydroquinazolin-2-yl)-2-(3,5-difluorophenyl)ethyl)-2-((3bS,4aR)-5,5-difluoro-3-(trifluoromethyl)-3b,4,4a,5-tetrahydro-1H-cyclopropa[3,4]cyclopenta[1,2-c]pyrazol-1-yl)acetamide]	0.084 nM	> 500 nM
Cn1nc(NS(C)(=O)=O)c2c(Cl)ccc(-n3c([C@H](Cc4cc(F)cc(F)c4)NC(=O)Cn4nc(C(F)F)c5c4C(F)(F)[C@@H]4C[C@H]54)nc4cc(NCC(F)F)ccc4c3=O)c21 (atropisomer, axis not shown; (P)) [Example 41, N—((S)-1-((3P)-3-(4-chloro-1-methyl-3-(methylsulfonamido)-1H-indazol-7-yl)-7-((2,2-difluoroethyl)amino)-4-oxo-3,4-dihydroquinazolin-2-yl)-2-(3,5-difluorophenyl)ethyl)-2-((3bS,4aR)-3-(difluoromethyl)-5,5-difluoro-3b,4,4a,5-tetrahydro-1H-cyclopropa[3,4]cyclopenta[1,2-c]pyrazol-1-yl)acetamide]	0.174 nM	> 1000 nM
CN1CCN(c2ccc3c(=O)n(-c4ccc(Cl)c5c(NS(C)(=O)=O)nn(C)c45)c([C@H](Cc4cc(F)cc(F)c4)NC(=O)Cn4nc(C(F)F)c5c4C(F)(F)[C@@H]4C[C@H]54)nc3c2)CC1 (atropisomer, axis not shown; (P)) [Example 11, N—((S)-1-((3P)-3-(4-chloro-1-methyl-3-(methylsulfonamido)-1H-indazol-7-yl)-7-(4-methylpiperazin-1-yl)-4-oxo-3,4-dihydroquinazolin-2-yl)-2-(3,5-difluorophenyl)ethyl)-2-((3bS,4aR)-3-(difluoromethyl)-5,5-difluoro-3b,4,4a,5-tetrahydro-1H-cyclopropa[3,4]cyclopenta[1,2-c]pyrazol-1-yl)acetamide]	0.117 nM	> 10000 nM
Cn1nc(NS(C)(=O)=O)c2c(Cl)ccc(-n3c([C@H](Cc4cc(F)cc(F)c4)NC(=O)Cn4nc(C(F)F)c5c4C(F)(F)[C@@H]4C[C@H]54)nc4cc(N5CCS(=O)(=O)CC5)ccc4c3=O)c21 (atropisomer, axis not shown; (P)) [Example 13, N—((S)-1-((3P)-3-(4-chloro-1-methyl-3-(methylsulfonamido)-1H-indazol-7-yl)-7-(1,1-dioxidothiomorpholino)-4-oxo-3,4-dihydroquinazolin-2-yl)-2-(3,5-difluorophenyl)ethyl)-2-((3bS,4aR)-3-(difluoromethyl)-5,5-difluoro-3b,4,4a,5-tetrahydro-1H-cyclopropa[3,4]cyclopenta[1,2-c]pyrazol-1-yl)acetamide]	0.468 nM	> 10000 nM
Cn1nc(NS(C)(=O)=O)c2c(Cl)ccc(-n3c([C@H](Cc4cc(F)cc(F)c4)NC(=O)Cn4nc(C(F)F)c5c4C(F)(F)[C@@H]4C[C@H]54)nc4cc(N5CC(S(C)(=O)=O)C5)ccc4c3=O)c21 (atropisomer, axis not shown; (P)) [Example 26, N—((S)-1-((3P)-3-(4-chloro-1-methyl-3-(methylsulfonamido)-1H-indazol-7-yl)-7-(3-(methylsulfonyl)azetidin-1-yl)-4-oxo-3,4-dihydroquinazolin-2-yl)-2-(3,5-difluorophenyl)ethyl)-2-((3bS,4aR)-3-(difluoromethyl)-5,5-difluoro-3b,4,4a,5-tetrahydro-1H-cyclopropa[3,4]cyclopenta[1,2-c]pyrazol-1-yl)acetamide]	0.295 nM	> 500 nM
C[C@@H]1CN(c2ccc3c(=O)n(-c4ccc(Cl)c5c(NS(C)(=O)=O)nn(CC(F)(F)F)c45)c([C@H](Cc4cc(F)cc(F)c4)NC(=O)Cn4nc(C5CC5)cc4C(F)F)nc3c2)C[C@H](C)O1 (atropisomer, axis not shown; (P)) [Example 60, N—((S)-1-((3P)-3-(4-chloro-3-(methylsulfonamido)-1-(2,2,2-trifluoroethyl)-1H-indazol-7-yl)-7-((2S,6R)-2,6-dimethylmorpholino)-4-oxo-3,4-dihydroquinazolin-2-yl)-2-(3,5-difluorophenyl)ethyl)-2-(3-cyclopropyl-5-(difluoromethyl)-1H-pyrazol-1-yl)acetamide]	0.36 nM	> 500 nM
COC[C@@H]1CCCN1c1ccc2c(=O)n(-c3ccc(Cl)c4c(NS(C)(=O)=O)nn(C)c34)c([C@H](Cc3cc(F)cc(F)c3)NC(=O)Cn3nc(C(F)F)c4c3C(F)(F)[C@@H]3C[C@H]43)nc2c1 (atropisomer, axis not shown; (P)) [Example 3, N—((S)-1-((3P)-3-(4-chloro-1-methyl-3-(methylsulfonamido)-1H-indazol-7-yl)-7-((S)-2-(methoxymethyl)pyrrolidin-1-yl)-4-oxo-3,4-dihydroquinazolin-2-yl)-2-(3,5-difluorophenyl)ethyl)-2-((3bS,4aR)-3-(difluoromethyl)-5,5-difluoro-3b,4,4a,5-tetrahydro-1H-cyclopropa[3,4]cyclopenta[1,2-c]pyrazol-1-yl)acetamide]	0.175 nM	> 500 nM
Cn1nc(NS(C)(=O)=O)c2c(Cl)ccc(-n3c([C@H](Cc4cc(F)cc(F)c4)NC(=O)Cn4nc(C(F)F)c5c4C(F)(F)[C@@H]4C[C@H]54)nc4cc(N5CCOCC5)ccc4c3=O)c21 (atropisomer, axis not shown; (P)) [Example 12, N—((S)-1-((3P)-3-(4-chloro-1-methyl-3-(methylsulfonamido)-1H-indazol-7-yl)-7-morpholino-4-oxo-3,4-dihydroquinazolin-2-yl)-2-(3,5-difluorophenyl)ethyl)-2-((3bS,4aR)-3-(difluoromethyl)-5,5-difluoro-3b,4,4a,5-tetrahydro-1H-cyclopropa[3,4]cyclopenta[1,2-c]pyrazol-1-yl)acetamide]	0.035 nM	> 1000 nM
Cn1nc(NS(C)(=O)=O)c2c(Cl)ccc(-n3c([C@H](Cc4cc(F)cc(F)c4)NC(=O)Cn4nc(C(F)F)c5c4C(F)(F)[C@@H]4C[C@H]54)nc4cc(NCc5ccccc5)ccc4c3=O)c21 (atropisomer, axis not shown; (P)) [Example 20, N—((S)-1-(7-(benzylamino)-(3P)-3-(4-chloro-1-methyl-3-(methylsulfonamido)-1H-indazol-7-yl)-4-oxo-3,4-dihydroquinazolin-2-yl)-2-(3,5-difluorophenyl)ethyl)-2-((3bS,4aR)-3-(difluoromethyl)-5,5-difluoro-3b,4,4a,5-tetrahydro-1H-cyclopropa[3,4]cyclopenta[1,2-c]pyrazol-1-yl)acetamide]	0.38 nM	> 1000 nM
CO[C@@H]1CCN(c2ccc3c(=O)n(-c4ccc(Cl)c5c(NS(C)(=O)=O)nn(C)c45)c([C@H](Cc4cc(F)cc(F)c4)NC(=O)Cn4nc(C(F)F)c5c4C(F)(F)[C@@H]4C[C@H]54)nc3c2)C1 (atropisomer, axis not shown; (P)) [Example 5, N—((S)-1-((3P)-3-(4-chloro-1-methyl-3-(methylsulfonamido)-1H-indazol-7-yl)-7-((R)-3-methoxypyrrolidin-1-yl)-4-oxo-3,4-dihydroquinazolin-2-yl)-2-(3,5-difluorophenyl)ethyl)-2-((3bS,4aR)-3-(difluoromethyl)-5,5-difluoro-3b,4,4a,5-tetrahydro-1H-cyclopropa[3,4]cyclopenta[1,2-c]pyrazol-1-yl)acetamide]	0.05 nM	> 500 nM
